Reference: patent publication US20120165403A1, “METHODS OF INHIBITING THE ACTIVITY OF HSP90 AND/OR ARYL HYDROCARBON RECEPTOR” (UNIVERSITY OF ROCHESTER, priority 2004, published 2012)

Molecular target: T1, p23 (Homo sapiens, UniProt Q15185)
T1 construct: made in house; host or cells: coupled transcription/translation in rabbit reticulocyte lysate (TNT, Promega), 35S-labelled
T1 sequence (Q15185 1-160): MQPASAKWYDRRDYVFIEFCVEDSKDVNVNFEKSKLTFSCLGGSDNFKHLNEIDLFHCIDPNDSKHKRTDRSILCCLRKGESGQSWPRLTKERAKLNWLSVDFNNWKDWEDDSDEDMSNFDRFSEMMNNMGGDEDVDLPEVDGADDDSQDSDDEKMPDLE
Assay: Affinity chromatography on EGCG-conjugated Sepharose, in vitro translated p23
Assay type: binding
Settings: 35S-p23 in vitro translated in RRL
Text: Murine AhR and ARNT cDNA (obtained from J. Whitlock and O. Hankinson, respectively) were inserted into pcDNA3 (Invitrogen, Carlsbad, Calif.). Chicken hsp90 constructs (FIG. 5), c90711hsp (wild-type), c90G94D (wild-type point mutant gly94→Asp (Grenert et al., J. Biol. Chem. 272:23843-23850 (1997), which is hereby incorporated by reference in its entirety), c90D92A (wild-type point mutant Asp92→Ala (Sullivan et al., J. Biol. Chem. 268:20373-20379 (1993), which is hereby incorporated by reference in its entirety), c90N221 (wild-type truncation mutant encoding a.a. 221-728 (Sullivan et al., J. Biol. Chem. 268:20373-20379 (1993), which is hereby incorporated by reference in its entirety)), c90N303 (a.a. 303-728) and c90N538 (a.a. 538-728) were kind gifts from Dr. D. Toft (Rochester, Minn.). The C-terminal truncation mutant c900507 (a.a. 1-221) was obtained from Dr. L. Neckers (Rockville, Md.) (Grenert et al., J. Biol. Chem. 272:23843-23850 (1997); Marcu et al., J. Biol. Chem. 275:37181-37186 (2000), which are hereby incorporated by reference in their entirety). Human p23 cDNA was excised from pQE80-p23 (obtained from W. Chan Stockton, Calif.) by sequential digests using the restriction enzymes Sad (3′-end) and BamHI (5′-end) and inserted into the similarly digested pET28a (Novagen, Madison, Wis.). […]

Structure (SMILES): O=C(O[C@@H]1Cc2c(O)cc(O)cc2O[C@@H]1c1cc(O)c(O)c(O)c1)c1cc(O)c(O)c(O)c1 [EGCG, epigallocatechin gallate]
- binding of p23 to immobilized EGCG: incapable of binding immobilized EGCG
